In US8486960B2, “Formulations and methods for vascular permeability-related diseases or conditions” (Santen Pharmaceutical Co., Ltd., priority 2006, dated 2013):

Assay: Rapamycin levels in hamster cheek tissue homogenate by LC/MS
Type: in vivo, golden Syrian hamsters
Settings: for Rapamycin assayed concentration, Average: hamster cheek pouch, all samples
Excerpt: Upon sacrifice of the animals, samples of both of the Hamster cheeks were obtained and frozen at −80 degrees Celsius. The samples were labeled as to the amount of intraperitoneal dose received, and whether they were right (studied with chamber) or left.

average tissue level of rapamycin in the hamster cheek pouch (0.1 mg/kg treatment group): 7.37 ng/g
average tissue level of rapamycin in the hamster cheek pouch (0.5 mg/kg treatment group): 11.01 ng/g
average tissue level of rapamycin in the hamster cheek pouch (2.0 mg/kg treatment group): 40.83 ng/g
average tissue level of rapamycin in the hamster cheek pouch (10 mg/kg treatment group): 55.15 ng/g
Rapamycin assayed concentration, Average (dosing 0.1 mg/kg ip): 7.37 ng/g or pg/mg
Rapamycin assayed concentration, Average (dosing 0.5 mg/kg ip): 11.01 ng/g or pg/mg
Rapamycin assayed concentration, Average (dosing 2 mg/kg ip): 40.83 ng/g or pg/mg
Rapamycin assayed concentration, Average (dosing 10 mg/kg ip): 55.15 ng/g or pg/mg
Compound: CO[C@H]1C[C@@H]2CC[C@@H](C)[C@@](O)(O2)C(=O)C(=O)N2CCCC[C@H]2C(=O)O[C@H]([C@H](C)C[C@@H]2CC[C@@H](O)[C@H](OC)C2)CC(=O)[C@H](C)/C=C(\C)[C@@H](O)[C@@H](OC)C(=O)[C@H](C)C[C@H](C)/C=C/C=C/C=C/1C [rapamycin]
